# Measurements taken from US20040138291A1, “Treatment of sexual dysfunction” (priority 2002, published 2004).
# Experiments:
# [1] = system: aged (18 months) female Wistar rats; assay: Recovery of APO-induced GVA response in aged female rats with short-term anti-hypertensive treatment; type: in vivo, rat
# Description: Aged (18 months) and control (3-4 months) female Wistar rats were assessed for APO-induced GVA response as described above (Example 1). Aged females were then treated with enalapril (30 mg kg^−1day^−1, orally)+low salt diet for 2 weeks. Prior to, during, and after treatment, apomorphine (80 ug kg^−1, s.c.) was used to elicit GVA responses. The frequency of GVA responses per rat for a 30-minute period was determined as described above (Example 1).
# [2] = system: male spontaneously hypertensive rats (SHR); assay: APO-induced penile erectile response in aging SHR with anti-hypertensive and testosterone treatments; type: in vivo, rat; conditions: for number of erections relative to pre-treatment: summary of Example 3; for increase in number of erections two weeks off treatment: third treatment at 68 weeks, previously untreated rats, low salt diet, 30 mg/kg per day
# Description: Animals: 30-week-old male spontaneously hypertensive rats (Charles River Laboratories, Montreal, Quebec, Canada) were housed individually at a temperature of 22-24° C. with a 12-hour light/dark cycle. They were provided with free access to regular rodent chow (0.4% Na^+) and tap water. All procedures were performed in accordance with the guidelines of the Canadian Council on Animal Care.
# Anti-hypertensive Treatments. Rats were randomly divided into three groups. The control animals received only tap water. One treatment group received the ACE inhibitor enalapril maleate (30 mg/kg per day), and the other received the vasodilator hydralazine (45 mg/kg per day) (enalapril and hydralazine supplied by Sigma Chemical Co., St. Louis, Mo.) administered orally through their drinking water for 2 weeks. Aspartame (100 mg/1) was added to the hydralazine solution to improve the taste. Drug concentrations were calculated based on previously established drinking patterns^(24). Several times throughout the 2-week treatment period, the drug concentrations in the drinking water were adjusted to account for fluctuations in animal weight or fluid intake. Erectile response was measured in all groups with the administration of apomorphine (APO). APO-testing was performed three times before treatment and twice between days 7-14 of treatment.
# A second two-week anti-hypertensive treatment was performed at 49 weeks of age. Rather than trying to prevent erectile dysfunction, this treatment attempted to restore erectile function. The same drugs and procedures were used as outlined above. APO-testing was performed twice between days 7-14 of treatment and twice off treatment.
# Rats were randomized into four new treatment groups. The previously untreated rats received enalapril (30 mg/kg per day) or losartan (30 mg/kg per day) in their drinking water and were fed a low sodium diet (0.04% Na^+). After 6 days of treatment, a daily 4-hour access to salt containing regular chow (0.4% Na^+) was permitted to allow for a depressor response of 50% of the pre-treatment levels^(25). The treated rats received enalapril (30 mg/kg per day) in their drinking water and a low sodium diet (0.04% Na^+) or a triple therapy treatment^(24) combining hydralazine (45 mg/kg per day), a calcium channel blocker, nifedipine (200 mg per day) and a diuretic, hydrochlorothiazide (100 mg/l) (all drugs supplied by Sigma Chemical Co., St. Louis, Mo.). Hydralazine and hydrochlorothiazide were administered in the drinking water and nifedipine was mixed into ground regular rodent chow during the 12 h dark cycle. Aspartame (100 mg/l) was added to the hydralazine solution to improve the taste. APO-testing was performed twice between days 7-14 of treatment and twice off treatment.
# Testosterone was prepared from a stock solution of testosterone propionate (Taro Pharmaceuticals, Bramalea, Ontario) diluted in peanut oil. Each rat received a single dose of testosterone (480 μg/kg) administered via subcutaneous injection in the neck. Testosterone was administered 36 hours prior to APO-testing.
# Assessment of Erectile Response. Erectile response was assessed using the well-established bio-assay rat model developed by Heaton et al.^(17). The rats were placed in separate, wire hanging-wall cages with clear Plexiglas bottoms in a dark, quiet room and allowed to acclimate for 20 minutes. Each rat received apomorphine (80 μg/kg) in saline ([…] apomorphine plus 100 μg/ml ascorbic acid) via subcutaneous injection (1 ml/kg) in the loose skin of the neck or back. Erections and yawns were counted at 5-minute intervals over a 30-minute period via videomonitoring in an adjacent room.
# [3] = system: ovariectomized (OVX) Wistar rats; assay: APO-induced responses in ovariectomized (OVX) rats; type: in vivo, rat
# Description: A modification of a previous protocol using APO (80 ug/kg in 100 ug/ml ascorbic acid in water, s.c.) was used^(17). […] Rats were placed in hanging cages with bottoms constructed of Plexiglas®, in a dark, quiet room where they were allowed to acclimate for 10 minutes before the testing period. Following APO administration, the number of genital responses and associated yawning responses were recorded for a 30 minute period via a video monitoring system in an adjacent room.
# APO-induced responses were determined in ovariectomized (OVX)^(22) rats to determine the effect of reduced levels of endogenous hormones. In brief, animals were anaesthetized with isoflurane gas delivered via a Bain rebreathing system. A small midline dorsal skin incision was made approximately half-way between the middle of the back and the base of the tail. Both ovaries were removed by ligating and severing the junction between the fallopian tube and uterine hom. Post-operative analgesia (buprenorphine, Buprenex™, 0.05 mg/kg) and antibiotics (0.1 ml/100 g body wt., Tribrissen™ 24%, Schering Canada Inc.) were administered daily for 5 days. Animals were given at least one week to recover before the onset of experimentation.
# [4] = system: female Wistar rats; assay: APO-induced genital vasocongestive arousal (GVA) response bio-assay, intact rats; conditions: for average number of GVA responses: APO 80 ug/kg s.c.; for average number of GVA responses / yawning responses: 30 minutes; for yawning responses: intact animals
# [5] = distribution over the 30-minute period
structure (smiles),measurement,setting,value
CCOC(=O)[C@H](CCc1ccccc1)N[C@@H](C)C(=O)N1CCC[C@H]1C(=O)O [enalapril],frequency of APO-induced GVA responses off treatment relative to the treatment period,"[1]; 1 & 3 week off-treatment, p<0.05",persistent and significant increase
same,persistence of increased sexual responsiveness to APO after cessation of treatment,[1]; compared to pre-treatment levels,persisted for at least ten weeks
same,overall APO-induced GVA response rate in aged females,[1]; during anti-hypertensive treatment,56%
same,APO-induced GVA responses during anti-hypertensive treatment,"[1]; enalapril 30 mg/kg/day orally + low salt diet, 2 weeks, p=0.065",trend of increasing
same,overall APO-induced GVA response rate in aged females,[1]; off-treatment,93%
same,partial behavioural responses,"[1]; persisted after cessation of the treatment, FIG. 2",increase in the number of partial behavioural responses
same,APO-induced GVA response of aged rats after two weeks of daily treatment,[1]; summary of pilot study,increased to levels of young rats
same,average number of erections two weeks after treatment was withdrawn,[2]; second treatment at 49 weeks,significantly higher level than the pre treatment values
same,increase in average number of erections on treatment vs pre treatment,"[2]; second treatment at 49 weeks, not significant",> 2 fold
same,number of erections relative to pre-treatment,[2],significant increases
same,increase in number of erections two weeks off treatment,[2],2 fold
"CN1CCc2cccc3c2[C@H]1Cc1ccc(O)c(O)c1-3 [APO, apomorphine]",reduction of GVA responses in OVX rats relative to intact animals,"[3]; 8 OVX Wistar rats, 30 minute period",about 80%
same,"non-GVA responses, OVX vs intact animals",[3]; APO administration,no significant difference
same,average GVA responses in control (3-4 months) female rats,"[1]; APO 80 ug/kg s.c., 30 minute period",about 2
same,APO-induced GVA response rate in aged females,[1]; pre-treatment,40%
same,GVA responses in aged female rats relative to controls,"[1]; prior to anti-hypertensive treatment, APO 80 ug/kg s.c.",significantly fewer
same,APO-induced erectile responses with age,"[2]; SHR 30-68 weeks, APO 80 μg/kg s.c.",progressive loss of response
same,share of total GVA responses occurring within the first 20 minutes,[4]; 30-minute period,80%
same,"genital grooming responses, dose-response assessment","[4]; APO 40, 80 & 120 ug/kg, result for 80 ug/kg, preliminary studies",greatest number of genital grooming responses
same,"non-GVA responses, APO vs control tested animals",[4]; any stage of the estrous cycle,no significant difference
same,average number of GVA responses,[4]; diestrus 1,1.13±1.36
same,yawning responses,[4]; diestrus 1,2±2.50
same,average number of GVA responses,[4]; diestrus II,0.88±0.85
same,time of peak of APO-induced GVA responses,[4]; [5],5 to 10 min
same,time of peak of APO-induced yawning responses,[4]; [5],15 to 20 min
same,average number of GVA responses,[4]; estrus,1.75±1.67
same,average number of GVA responses,[4]; metestrus,1.5±1.20
same,yawning responses,[4]; metestrus,3.63±3.96
same,average number of GVA responses,"[4]; proestrus, 8 rats",1.5±1.06
"CCC(=O)O[C@H]1CC[C@H]2[C@@H]3CCC4=CC(=O)CC[C@]4(C)[C@H]3CC[C@]12C [Testosterone, testosterone propionate]",effect of testosterone on erectile response,[2]; 66 weeks of age,did not increase erectile response
same,effect of testosterone on number of yawns,[2]; 66 weeks of age,significantly increase
same,effect of testosterone supplementation on number of erections,"[2]; control rats and rats treated with hydralazine, 47 and 66 weeks of age, 480 μg/kg s.c.",did not significantly affect
same,increase in number of erections with testosterone,"[2]; enalapril treated rats, after the first testosterone treatment",2.5 fold
CCCCc1nc(Cl)c(CO)n1Cc1ccc(-c2ccccc2-c2nn[nH]n2)cc1 [losartan],number of erections relative to pre-treatment,[2],significant increases
same,increase in number of erections two weeks off treatment,[2],2 fold
